From patent US12643887B2, “Heterocyclic derivatives with cardiomyocyte proliferation activity for treatment of heart diseases” (Tongji University, priority 2019, dated 2026)

Experiments:
[1] = molecular target: T1, human CIT (Homo sapiens, UniProt O14578); test: CIT enzyme assay (ADP-Glo); assay type: biochemical; conditions: ADP-Glo, ATP 5 μM; read-out: CIT IC50
T1 construct: Recombinant human CIT (1-499); GST (N); purchased SignalChem C52-11G; host or cells: Sf9 insect cells
Description: The ability of compounds to inhibit human CIT kinase activities was determined using a commercially available ADP-Glo™ Kinase Assay kit (Promega, Cat #V9102) according to the manufacturer's protocol.
(§1) Recombinant human CIT (1-499) (expressed in Sf9 insect cells with an N-terminal GST tag) was purchased from SignalChem (Cat #C52-11G). Recombinant full length human MBP (expressed in E. Coli cells with an N-terminal GST tag) was purchased from SignalChem (Cat #M42-54G). This assay, run in a 384-well plate format, is a generic method for measuring kinase activities using an ADP-Glo Kinase Assay Kit. The basic assay procedure involves two steps: (1) Enzymatic step: inhibitors are incubated with the kinase and then ATP (included in the ADP-Glo Kinase Assay Kit) and the MBP protein are added to start the enzymatic reaction; (2) Detection step: after the kinase reaction, first ADP-Glo™ Reagent is added to terminate the kinase reaction and deplete the remaining ATP. Second, the Kinase Detection Reagent is added to simultaneously convert ADP to ATP and allow the newly synthesized ATP to be measured using a luciferase/luciferin reaction. The light generated is measured using a luminometer.
(§2) Briefly, CIT (20 nM) in the enzymatic buffer solutions (40 mM Tris, pH 7.5, 20 mM MgCl2, 0.1 mg/ml BSA, 50 μM DTT) were mixed with various concentrations of inhibitors (dissolved in 100% DMSO). These solutions were incubated for 30 minutes at 25° C., and subsequently a mixture of substrate peptide and ATP was added with the final peptide and ATP concentrations at 0.05 mg/ml and 5 μM, respectively. The final reaction mixture of enzyme-substrate-ATP-compound was incubated for 90 minutes at 25° C.
(§3) Afterwards ADP-Glo™ Reagent was added and the mixture was incubated at 25° C. for 60 minutes. Then Kinase Detection Reagent was added, and the final mixture was incubated at 25° C. for 60 minutes. The luminescence signal of the final solution was measured on an Envision instrument (PerkinElmer). The percent (%) inhibition at each concentration of a compound is calculated relative to the luminescence signal in the Max and Min control wells contained within each assay plate. […] The concentrations and percent inhibition values for a test compound are plotted and the concentration of the compound required to achieve 50% inhibition (IC50) is determined with a four-parameter logistic dose response equation.

[2] = molecular target: T2, human CK2a2 (CSNK2a2) (Homo sapiens, UniProt P19784); test: CK2a2 (CSNK2a2) enzyme assay (ADP-Glo); assay type: biochemical; conditions: ADP-Glo, ATP 15 μM; read-out: CK2 alpha 2 IC50
T2 construct: Recombinant human CK2a2 (CSNK2a2) (full length); GST (N); purchased SignalChem C71-10G; host or cells: Sf9 insect cells
Description: 8. CK2a2 (CSNK2a2) Enzyme Assay
The ability of compounds to inhibit human CK2a2 (CSNK2a2) kinase activities was determined using a commercially available ADP-Glo™ Kinase Assay kit (Promega, Cat #V9102) according to the manufacturer's protocol.
as §1, with “CK2a2 (CSNK2a2) (full length)” for “CIT (1-499)”, “#C71-10G). CK2 substrate (sequence: […])” for “#C52-11G). Recombinant full length human MBP (expressed in E. Coli cells with an N-terminal GST tag)”, “#C08-58).” for “#M42-54G).”
as §2, with “Briefly, CK2a2 (CSNK2a2) (7” for “Briefly, CIT (20”, “at 0.04” for “at 0.05”, “and 15” for “and 5”
as §3

T1 sequence (O14578 1-499): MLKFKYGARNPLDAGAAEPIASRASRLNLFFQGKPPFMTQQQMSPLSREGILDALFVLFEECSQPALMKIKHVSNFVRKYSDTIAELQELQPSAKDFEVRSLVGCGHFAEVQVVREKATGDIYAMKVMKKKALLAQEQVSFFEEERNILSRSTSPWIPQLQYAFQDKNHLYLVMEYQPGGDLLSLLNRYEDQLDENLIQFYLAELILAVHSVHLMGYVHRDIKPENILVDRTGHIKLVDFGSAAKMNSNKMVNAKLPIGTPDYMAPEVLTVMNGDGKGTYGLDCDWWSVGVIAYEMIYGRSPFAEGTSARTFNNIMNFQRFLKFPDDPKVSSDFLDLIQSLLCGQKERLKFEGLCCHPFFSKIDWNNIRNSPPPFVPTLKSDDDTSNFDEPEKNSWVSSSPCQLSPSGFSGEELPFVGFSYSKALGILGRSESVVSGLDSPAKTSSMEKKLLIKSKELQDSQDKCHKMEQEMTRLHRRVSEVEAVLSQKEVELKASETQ
T2 sequence (P19784 whole entry): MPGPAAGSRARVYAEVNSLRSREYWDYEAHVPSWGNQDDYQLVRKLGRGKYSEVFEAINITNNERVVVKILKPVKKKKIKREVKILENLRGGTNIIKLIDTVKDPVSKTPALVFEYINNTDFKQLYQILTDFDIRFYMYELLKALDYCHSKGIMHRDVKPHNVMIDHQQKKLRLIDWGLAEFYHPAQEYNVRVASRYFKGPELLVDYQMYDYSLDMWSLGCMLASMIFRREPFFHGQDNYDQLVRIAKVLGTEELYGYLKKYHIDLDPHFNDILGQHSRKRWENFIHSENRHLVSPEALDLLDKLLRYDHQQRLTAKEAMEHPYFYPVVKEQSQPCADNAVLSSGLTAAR

SMILES | IC50 [1] | IC50 [2]
CN(C1=N/C(=C\c2ccc3c(c2)OCO3)C(=O)N1)c1ccccc1 [Example 1, (Z)-5-(benzo[d][1,3]dioxol-5-ylmethylene)-2-(methyl(phenyl)amino)-3,5-dihydro-4H-imidazol-4-one] | > 10 µM | 0.1 to 1 µM
O=C1/C(=C/c2ccc3c(c2)OCO3)N=C(N(Cc2ccccc2)c2ccccc2)N1Cc1ccccc1 [Example 2, (Z)-5-(benzo[d][1,3]dioxol-5-ylmethylene)-3-benzyl-2-(benzyl(phenyl)amino)-3,5-dihydro-4H-imidazol-4-one] | > 10 µM | 
O=C1NC(Nc2ccccc2)=N/C1=C\c1ccc2ncsc2c1 [Example 6, (Z)-5-(benzo[d]thiazol-6-ylmethylene)-2-(phenylamino)-3,5-dihydro-4H-imidazol-4-one] | 0.1 to 1 µM | < 0.1 µM
CN(C1=N/C(=C\c2ccc3ncsc3c2)C(=O)N1)c1ccccc1 [Example 7, (Z)-5-(benzo[d]thiazol-6-ylmethylene)-2-(methyl(phenyl)amino)-3,5-dihydro-4H-imidazol-4-one] | 0.1 to 1 µM | 0.1 to 1 µM
CN(CC1CC1)C1=N/C(=C\c2ccc3c(c2)OCO3)C(=O)N1 [Example 11, (Z)-5-(benzo[d][1,3]dioxol-5-ylmethylene)-2-((cyclopropylmethyl)(methyl)amino)-3,5-dihydro-4H-imidazol-4-one] | > 10 µM | 0.1 to 1 µM
O=C1NC(N(CCO)c2ccccc2)=N/C1=C\c1ccc2c(c1)OCO2 [Example 13, (Z)-5-(benzo[d][1,3]dioxol-5-ylmethylene)-2-((2-hydroxyethyl)(phenyl)amino)-3,5-dihydro-4H-imidazol-4-one] | > 10 µM | 0.1 to 1 µM
COc1ccccc1N(C)C1=N/C(=C\c2ccc3c(c2)OCO3)C(=O)N1 [Example 21, (Z)-5-(benzo[d][1,3]dioxol-5-ylmethylene)-2-((2-methoxyphenyl)(methyl)amino)-3,5-dihydro-4H-imidazol-4-one] | > 10 µM | 1 to 10 µM
O=C1NC(N(Cc2ccccc2)c2ccccc2)=N/C1=C\c1ccc2c(c1)OCO2 [Example 22, (Z)-5-(benzo[d][1,3]dioxol-5-ylmethylene)-2-(benzyl(phenyl)amino)-3,5-dihydro-4H-imidazol-4-one] | > 10 µM | > 10 µM
CN(Cc1ccccc1)C1=N/C(=C\c2ccc3c(c2)OCO3)C(=O)N1 [Example 23, (Z)-5-(benzo[d][1,3]dioxol-5-ylmethylene)-2-(benzyl(methyl)amino)-3,5-dihydro-4H-imidazol-4-one] | > 10 µM | > 10 µM
CN(C1=N/C(=C\c2ccc3c(c2)OCO3)C(=O)N1)c1ccc(N)cc1 [Example 37, (Z)-2-((4-aminophenyl)(methyl)amino)-5-(benzo[d][1,3]dioxol-5-ylmethylene)-3,5-dihydro-4H-imidazol-4-one] | > 10 µM | 0.1 to 1 µM
COc1ccc(N(C)C2=N/C(=C\c3ccc4ncsc4c3)C(=O)N2)cc1 [Example 38, (Z)-5-(benzo[d]thiazol-6-ylmethylene)-2-((4-methoxyphenyl)(methyl)amino)-3,5-dihydro-4H-imidazol-4-one] | 1 to 10 µM | 0.1 to 1 µM
O=C1NC(Nc2ccc(Cl)cc2)=N/C1=C\c1ccc2ncsc2c1 [Example 40, (Z)-5-(benzo[d]thiazol-6-ylmethylene)-2-((4-chlorophenyl)amino)-3,5-dihydro-4H-imidazol-4-one] | 0.1 to 1 µM | > 10 µM
O=C1/C(=C/c2ccc3ncsc3c2)N=C(N(Cc2ccccc2)c2ccccc2)N1Cc1ccccc1 [Example 42, (Z)-5-(benzo[d]thiazol-6-ylmethylene)-3-benzyl-2-(benzyl(phenyl)amino)-3,5-dihydro-4H-imidazol-4-one] | > 10 µM | > 10 µM
CN(C1=N/C(=C\c2ccc3ncsc3c2)C(=O)N1)c1ccc(N)cc1 [Example 44, (Z)-2-((4-aminophenyl)(methyl)amino)-5-(benzo[d]thiazol-6-ylmethylene)-3,5-dihydro-4H-imidazol-4-one] | 0.1 to 1 µM | 0.1 to 1 µM
CC(C)NC1=N/C(=C\c2ccc3ncsc3c2)C(=O)N1C [Example 45, (Z)-5-(benzo[d]thiazol-6-ylmethylene)-2-(isopropylamino)-3-methyl-3,5-dihydro-4H-imidazol-4-one] | 0.1 to 1 µM | 1 to 10 µM
Cn1cnc2ccc(/C=C3\N=C(Nc4ccccc4)NC3=O)cc21 [Example 46, (Z)-5-((1-methyl-1H-benzo[d]imidazol-6-yl)methylene)-2-(phenylamino)-3,5-dihydro-4H-imidazol-4-one] | 0.1 to 1 µM | < 0.1 µM
O=C1NC(Nc2ccc3ncsc3c2)=N/C1=C\c1ccc2c(c1)OCO2 [Example 47, (Z)-5-(benzo[d][1,3]dioxol-5-ylmethylene)-2-(benzo[d]thiazol-6-ylamino)-3,5-dihydro-4H-imidazol-4-one] | > 10 µM | > 10 µM
O=C1NC(Nc2ccc3ncsc3c2)=N/C1=C\c1ccc2ncsc2c1 [Example 48, (Z)-2-(benzo[d]thiazol-6-ylamino)-5-(benzo[d]thiazol-6-ylmethylene)-3,5-dihydro-4H-imidazol-4-one] | 0.1 to 1 µM | < 0.1 µM
O=C1NC(Nc2ccccc2)=N/C1=C\c1ccc2occc2c1 [Example 52, (Z)-5-(benzofuran-5-ylmethylene)-2-(phenylamino)-3,5-dihydro-4H-imidazol-4-one] | > 10 µM | > 10 µM
O=C1NC(Nc2ccccc2)=N/C1=C\c1ccc2ncccc2c1 [Example 53, (Z)-2-(phenylamino)-5-(quinolin-6-ylmethylene)-3,5-dihydro-4H-imidazol-4-one] | > 10 µM | > 10 µM
CN(C1=N/C(=C\c2ccc3c(c2)OCO3)C(=O)N1)c1ccc2ncsc2c1 [Example 70, (Z)-5-(benzo[d][1,3]dioxol-5-ylmethylene)-2-(benzo[d]thiazol-6-yl(methyl)amino)-3,5-dihydro-4H-imidazol-4-one] | > 10 µM | 0.1 to 1 µM
O=C1NC(Nc2ccc3nccnc3c2)=N/C1=C\c1ccc2ncsc2c1 [Example 82, (Z)-5-(benzo[d]thiazol-6-ylmethylene)-2-(quinoxalin-6-ylamino)-3,5-dihydro-4H-imidazol-4-one] | > 10 µM | < 0.1 µM
CN(C1=N/C(=C\c2ccc3ncsc3c2)C(=O)N1)c1ccc2ncsc2c1 [Example 83, (Z)-2-(benzo[d]thiazol-6-yl(methyl)amino)-5-(benzo[d]thiazol-6-ylmethylene)-3,5-dihydro-4H-imidazol-4-one] | 0.1 to 1 µM | 0.1 to 1 µM
CN(C1=N/C(=C\c2ccc3c(c2)OCCO3)C(=O)N1)c1ccc2ncsc2c1 [Example 84, (Z)-2-(benzo[d]thiazol-6-yl(methyl)amino)-5-((2,3-dihydrobenzo[b][1,4]dioxin-6-yl)methylene)-3,5-dihydro-4H-imidazol-4-one] | > 10 µM | 0.1 to 1 µM
NC1=N/C(=C\c2ccc3ncsc3c2)C(=O)N1 [Example 103, (Z)-2-amino-5-(benzo[d]thiazol-6-ylmethylene)-3,5-dihydro-4H-imidazol-4-one] | 0.1 to 1 µM | 0.1 to 1 µM
